Results as given in patent US7153855B2, “Pyrazolopyridinyl pyrimidine therapeutic compounds” (SmithKline Beecham Corporation, priority 2001, dated 2006).
Where a name gives a salt, the structure may show the parent alone.

tested on: HSV-1; experiment: HSV-1 infection of Vero 76 cells, viral DNA detected by hybridization capture (chemiluminescence); assay type: cell-based; conditions: Human alphaherpesvirus 1, Vero 76
Outline: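 Vero 76 cells infected 45 min at 37° C with HSV-1 (MOI=0.001), seeded at 5×10^4 cells/well in 2% FBS medium with compounds, incubated 40–48 h, then lysed in 0.2 N NaOH/1% detergent. Viral DNA captured by UL13 plasmid, hybridized overnight at 42° C with digoxigenin-labeled UL15 probe, detected by anti-digoxigenin-HRP chemiluminescence.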

Molecule `CCOP(=O)(NCCCCNc1cccc2c(-c3ccnc(NC4CCCC4)n3)c(-c3ccc(OC)cc3)nn12)OCC` [Example 89, Diethyl 4-{[3-[2-(cyclopentylamino)pyrimidin-4-yl]-2-(4-methoxyphenyl)pyrazolo[1,5-a]pyridin-7-yl]amino}butylamidophosphate] has an IC50 of 800 nM.

same assay, conditions: Human alphaherpesvirus 1; HSV-1 in Vero 76 cells, MOI=0.001, compounds incubated 40–48 hours at 37° C.; read-out: IC50

Going from `COc1ccc(-c2nn3c(NCCCCNC(=O)CCCC[C@@H]4SC[C@@H]5NC(=O)N[C@@H]54)cccc3c2-c2ccnc(NC3CCCC3)n2)cc1` [Example 82, 5-[(3aS,4S,6aR)-2-Oxohexahydro-1H-thieno[3,4-d]imidazol-4-yl]-N-(4-{[3-[2-(cyclopentylamino)pyrimidin-4-yl]-2-(4-methoxyphenyl)pyrazolo[1,5-a]pyridin-7-yl]amino}butyl)pentanamide] to `COc1ccc(-c2nn3c(NCCCCNC(=O)CCC(=O)O)cccc3c2-c2ccnc(NC3CCCC3)n2)cc1` [Example 88, 4-[(4-{[3-[2-(Cyclopentylamino)pyrimidin-4-yl]-2-(4-methoxyphenyl)pyrazolo[1,5-a]pyridin-7-yl]amino}butyl)amino]-4-oxobutanoic acid], the IC50 rises from 400 nM to 9000 nM (22-fold).

Compared with `COc1ccc(-c2nn3c(N)cccc3c2-c2ccnc(NC3CCCC3)n2)cc1` [Example 83, 3-[2-(Cyclopentylamino)pyrimidin-4-yl]-2-(4-methoxyphenyl)pyrazolo-[1,5-a]pyridin-7-amine], `COc1ccc(-c2nn3c(NCCN)cccc3c2-c2ccnc(NC3CCCC3)n2)cc1` [Example 96, N′-[3-[2-(Cyclopentylamino)-4-pyrimidinyl]-2-(4-methoxyphenyl)pyrazolo[1,5-a]pyridin-7-yl]-1,2-ethanediamine] is 1.6-fold higher in IC50: 700 nM for the first, 1100 nM for the second. The first is the more potent here.

First: COc1ccc(-c2nn3c(NCCCCNC(=N)N)cccc3c2-c2ccnc(NC3CCCC3)n2)cc1 [Example 85, N-(4-{[3-[2-(Cyclopentylamino)pyrimidin-4-yl]-2-(4-methoxyphenyl)pyrazolo[1,5-a]pyridin-7-yl]amino}butyl)guanidine]
Second: COc1ccc(-c2nn3c(NCCCCO)cccc3c2-c2ccnc(NC3CCCC3)n2)cc1 [Example 90, 4-{[3-[2-(Cyclopentylamino)pyrimidin-4-yl]-2-(4-methoxyphenyl)-pyrazolo[1,5-a]pyridin-7-yl]amino}butan-1-ol]
The IC50 of the first is 20-fold higher: 4000 nM for the first, 200 nM for the second.

Going from `COc1ccc(-c2nn3c(NCCCCNS(C)(=O)=O)cccc3c2-c2ccnc(NC3CCCC3)n2)cc1` [Example 86, N-(4-{[3-[2-(Cyclopentylamino)pyrimidin-4-yl]-2-(4-methoxyphenyl)pyrazolo[1,5-a]pyridin-7-yl]amino}butyl)methanesulfonamide] to `COc1ccc(-c2nn3c(NCCNS(C)(=O)=O)cccc3c2-c2ccnc(NC3CCCC3)n2)cc1` [Example 95, N-(2-{[3-[2-(Cyclopentylamino)-4-pyrimidinyl]-2-(4-methoxy-phenyl)pyrazolo[1,5-a]pyridin-7-yl]amino}ethyl)methanesulfonamide], the IC50 falls from 600 nM to 300 nM (2-fold).

Compared with `COc1ccc(-c2nn3c(NCCCCNC(=O)NS(=O)(=O)c4ccc(C)cc4)cccc3c2-c2ccnc(NC3CCCC3)n2)cc1` [Example 87, N-{[(4-{[3-[2-(Cyclopentylamino)pyrimidin-4-yl]-2-(4-methoxyphenyl)pyrazolo[1,5-a]pyridin-7-yl]amino}butyl)amino]carbonyl}-4-methylbenzenesulfonamide], `COc1ccc(-c2nn3c(NCCCCOP(=O)(O)O)cccc3c2-c2ccnc(NC3CCCC3)n2)cc1` [Example 92, 4-{[3-[2-(Cyclopentylamino)pyrimidin-4-yl]-2-(4-methoxy-phenyl)pyrazolo[1,5-a]pyridin-7-yl]amino}butyl phosphate diammonium salt] is 3.3-fold lower in IC50: 1000 nM for the first, 300 nM for the second.

Going from `[N-]=[N+]=Nc1cccc(-c2nn3c(NC4CCCC4)cccc3c2-c2ccnc(NC3CCCC3)n2)c1` [Example 93, 2-(3-Azidophenyl)-N-cyclopentyl-3-[2-(cyclopentylamino)pyrimidin-4-yl]pyrazolo[1,5-a]pyridin-7-amine] to `FC(F)(F)c1cccc(-c2nn3c(NC4CCCC4)cccc3c2-c2ccnc(NC3CCCC3)n2)c1` [Example 98, N-Cyclopentyl-3-[2-(cyclopentylamino)-4-pyrimidinyl]-2-[3-(trifluoromethyl)phenyl]pyrazolo[1,5-a]pyridin-7-amine], the IC50 falls from 700 nM to 300 nM (2.3-fold). The second is the more potent here.

Going from `COc1ccc(-c2nn3c(NCC(=O)N4CCCC4)cccc3c2-c2ccnc(NC3CCCC3)n2)cc1` [Example 94, 3-[2-(Cyclopentylamino)-4-pyrimidinyl]-2-(4-methoxyphenyl)-N-[2-oxo-2-(1-pyrrolidinyl)ethyl]pyrazolo[1,5-a]pyridin-7-amine] to `COCCNc1cccc2c(-c3ccnc(NC4CCCC4)n3)c(-c3cccc(Cl)c3)nn12` [Example 104, 2-(3-Chlorophenyl)-3-[2-(cyclopentylamino)-4-pyrimidinyl]-N-(2-methoxyethyl)pyrazolo[1,5-a]pyridin-7-amine], the IC50 falls from 6200 nM to 200 nM (31-fold). The second is the more potent here.

`Fc1cccc(-c2nn3c(N4CCOCC4)cccc3c2-c2ccnc(NC3CCCC3)n2)c1` [Example 97, N-Cyclopentyl-4-[2-(3-fluorophenyl)-7-(4-morpholinyl)pyrazolo[1,5-a]pyridin-3-yl]-2-pyrimidinamine] and `Clc1cccc(-c2nn3c(N4CCOCC4)cccc3c2-c2ccnc(NC3CCCC3)n2)c1` [Example 103, 4-[2-(3-Chlorophenyl)-7-(4-morpholinyl)pyrazolo[1,5-a]pyridin-3-yl]-N-cyclopentyl-2-pyrimidinamine] are within 1.5-fold of each other in IC50: 700 nM for the first, 500 nM for the second.

Compared with `Clc1cccc(-c2nn3c(NC4CC4)cccc3c2-c2ccnc(NC3CC3)n2)c1` [Example 99, 2-(3-Chlorophenyl)-N-cyclopropyl-3-[2-(cyclopropylamino)-4-pyrimidinyl]pyrazolo[1,5-a]pyridin-7-amine], `Clc1cccc(-c2nn3c(NC4CCCC4)cccc3c2-c2ccnc(NC3CC3)n2)c1` [Example 100, 2-(3-Chlorophenyl)-N-cyclopentyl-3-[2-(cyclopropylamino)-4-pyrimidinyl]pyrazolo[1,5-a]pyridin-7-amine] is 1.7-fold lower in IC50: 500 nM for the first, 300 nM for the second. The second is the more potent here.

Compared with `Clc1cccc(-c2nn3c(NC4CC4)cccc3c2-c2ccnc(NC3CCCC3)n2)c1` [Example 101, 2-(3-Chlorophenyl)-3-[2-(cyclopentylamino)-4-pyrimidinyl]-N-cyclopropylpyrazolo[1,5-a]pyridin-7-amine], `Fc1cccc(-c2nn3c(NC4CCCC4)cccc3c2-c2ccnc(NC3CC3)n2)c1` [Example 102, N-Cyclopentyl-3-[2-(cyclopropylamino)-4-pyrimidinyl]-2-(3-fluorophenyl)pyrazolo[1,5-a]pyridin-7-amine] is 3.5-fold higher in IC50: 200 nM for the first, 700 nM for the second.

Compared with `Fc1cccc(-c2nn3c(NC4CC4)cccc3c2-c2ccnc(NC3CCCC3)n2)c1` [Example 105, 3-[2-(Cyclopentylamino)-4-pyrimidinyl]-N-cyclopropyl-2-(3-fluorophenyl)pyrazolo[1,5-a]pyridin-7-amine], `COCCNc1cccc2c(-c3ccnc(NC4CCCC4)n3)c(-c3cccc(F)c3)nn12` [Example 106, 3-[2-(Cyclopentylamino)-4-pyrimidinyl]-2-(3-fluorophenyl)-N-(2-methoxyethyl)pyrazolo[1,5-a]pyridin-7-amine] is 3-fold lower in IC50: 600 nM for the first, 200 nM for the second. The second is the more potent here.
